Values after ≈ are worked out from the molar mass of the structure shown. Like-named read-outs stand apart in the source and are kept apart here. Where a SMILES comes first, the peptide text is derived from it.
Columns and labels:
E. coli = type: cell-based, Escherichia coli; details: E. coli
How it was run: (§1)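 Broth microdilution in MH medium; strains were diluted to 2×10^6 CFU per ml before plating. Peptide was serially diluted stepwise at 2:1 starting from its MIC, and MH-diluted antibiotic was then added to determine MIC. The reversed arrangement was also tested.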

MDREC 1229 = type: cell-based, Escherichia coli
How it was run: as §1

MDRAB 12035 [1] = experiment: MIC of antimicrobial peptide during combined treatment with antibiotic; type: cell-based, Acinetobacter baumannii
How it was run: as §1

A. baumannii [2] = experiment: as above; type: cell-based, Acinetobacter baumannii
How it was run: as §1

MDRAB 12036 = type: cell-based, Acinetobacter baumannii
How it was run: (§2)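 Each strain is brought to 2×10^6 CFU in nutrient-sufficient Mueller-Hinton medium and dispensed into wells. Peptide solutions, stepwise diluted 2:1 in the same medium, are then added. The minimal concentration preventing growth gives the MIC.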

gram-negative bacteria = experiment: MIC, summary statements for gram-negative bacteria; type: cell-based; details: gram-negative bacteria
Procedure: For the antibacterial activity, a minimal inhibitory concentration (MIC) of a peptide in which fungus bodies were not split in an MH medium with sufficient nutrients was measured.
Specifically, the strains described in the following [Table 2] were purchased and diluted with an MH medium such that the number of bacteria was 2×10^6 colony-forming units (CFUs), 100 μl of each of the diluted strains was aliquoted into a 96-well microtiter plate, and then 100 μl of a peptide solution diluted with the MH medium (solution diluted stepwise at 2: 1) was added to each well.

MDRST 8009 = type: cell-based, Salmonella typhimurium; details: agent alone
How it was run: as §2

MDRAB 12035 [3] = experiment: microbe, parasite or virus in culture; type: cell-based, Acinetobacter baumannii
How it was run: as §2

A. baumannii [4] = experiment: microbe, parasite or virus in culture; type: cell-based, Acinetobacter baumannii
How it was run: as §2

S. typhimurium = experiment: microbe, parasite or virus in culture; type: cell-based, Salmonella typhimurium
How it was run: as §2

[5] = with Erythromycin […] (Conc./MIC 1)
[6] = erythromycin 4 μg/ml (Conc./MIC 1/8)
[7] = erythromycin 8 μg/ml (Conc./MIC 1/4)
[8] = erythromycin 16 μg/ml (Conc./MIC 1/2)
[9] = erythromycin 32 μg/ml (Conc./MIC 1)
[10] = vancomycin 512 μg/ml (Conc./MIC 1/2)
[11] = vancomycin 1024 μg/ml (Conc./MIC 1)

**Q.** What does the source list for `CC[C@H](C)[C@H](NC(=O)[C@H](CCCCN)NC(=O)[C@H](Cc1c[nH]c2ccccc12)NC(=O)[C@@H](N)CCCNC(=N)N)C(=O)N[C@@H](Cc1ccccc1)C(=O)N[C@@H](CCCCN)C(=O)N[C@@H](CCCCN)C(=O)N[C@H](C(=O)N1CCC[C@H]1C(=O)N[C@@H](CCCCN)C(=O)N[C@@H](Cc1ccccc1)C(=O)N[C@@H](CC(C)C)C(=O)N[C@@H](Cc1c[nH]cn1)C(=O)N[C@@H](CO)C(=O)N[C@@H](C)C(=O)N[C@@H](CCCCN)C(=O)N[C@@H](CCCCN)C(=O)N[C@@H](Cc1c[nH]c2ccccc12)C(N)=O)[C@@H](C)CC` [PapMA-2, RWK IFK KIP KFL HSA KKW-NH2] (H-RWKIFKKIPKFLHSAKKW-NH2; N-terminus assumed)?
**A.** Peptide MIC (E. coli; [5]): 0 µg/mL; Peptide MIC (E. coli; with Linezolid […] (Conc./MIC 1)): 0 µg/mL; Peptide MIC (E. coli; with Vancomycin 1024 μg/ml (Conc./MIC 1)): 0 µg/mL; Peptide MIC (MDREC 1229; [5]): 0 µg/mL; Peptide MIC (MDREC 1229; with Linezolid 512 μg/ml (Conc./MIC 1)): 0 µg/mL; Peptide MIC during treatment with erythromycin (MDRAB 12035 [1]; [6]): 4 µg/mL; Peptide MIC during treatment with erythromycin (MDRAB 12035 [1]; [7]): 4 µg/mL; Peptide MIC during treatment with erythromycin (MDRAB 12035 [1]; [8]): 2 µg/mL; Peptide MIC during treatment with erythromycin (MDRAB 12035 [1]; [9]): 0 µg/mL; Peptide MIC during treatment with linezolid (MDRAB 12035 [1]; linezolid 64 μg/ml (Conc./MIC 1/8)): 4 µg/mL; Peptide MIC during treatment with linezolid (MDRAB 12035 [1]; linezolid 512 μg/ml (Conc./MIC 1)): 0 µg/mL; Peptide MIC during treatment with linezolid (MDRAB 12035 [1]; linezolid […] (Conc./MIC 1/2)): 1 µg/mL; Peptide MIC during treatment with linezolid (MDRAB 12035 [1]; linezolid […] (Conc./MIC 1/4)): 2 µg/mL; Peptide MIC during treatment with vancomycin (MDRAB 12035 [1]; [10]): 1 µg/mL; Peptide MIC during treatment with vancomycin (MDRAB 12035 [1]; [11]): 0.25 µg/mL; Peptide MIC during treatment with vancomycin (MDRAB 12035 [1]; vancomycin […] (Conc./MIC 1/4)): 2 µg/mL; Peptide MIC during treatment with vancomycin (MDRAB 12035 [1]; vancomycin […] (Conc./MIC 1/8)): 4 µg/mL; Peptide MIC during treatment with antibiotic (A. baumannii [2]; [6]): 4 µg/mL; Peptide MIC during treatment with antibiotic (A. baumannii [2]; [7]): 4 µg/mL; Peptide MIC during treatment with antibiotic (A. baumannii [2]; [8]): 1 µg/mL; Peptide MIC during treatment with antibiotic (A. baumannii [2]; [9]): 0 µg/mL; Peptide MIC during treatment with antibiotic (A. baumannii [2]; linezolid 32 μg/ml (Conc./MIC 1/8)): 4 µg/mL; Peptide MIC during treatment with antibiotic (A. baumannii [2]; linezolid 64 μg/ml (Conc./MIC 1/4)): 4 µg/mL; Peptide MIC during treatment with antibiotic (A. baumannii [2]; linezolid […] (Conc./MIC 1)): 0 µg/mL; Peptide MIC during treatment with antibiotic (A. baumannii [2]; linezolid […] (Conc./MIC 1/2)): 0.5 µg/mL; Peptide MIC during treatment with antibiotic (A. baumannii [2]; [10]): 0.25 µg/mL; Peptide MIC during treatment with antibiotic (A. baumannii [2]; [11]): 0 µg/mL; Peptide MIC during treatment with antibiotic (A. baumannii [2]; vancomycin […] (Conc./MIC 1/4)): 0.5 µg/mL; Peptide MIC during treatment with antibiotic (A. baumannii [2]; vancomycin […] (Conc./MIC 1/8)): 2 µg/mL; Minimal inhibitory concentration MIC (MDRAB 12036): 16 µg/mL (≈ 6.83 µM); Antibacterial activity (in words) (gram-negative bacteria): comparable to papiliocin or melittin; Minimal inhibitory concentration MIC (MDRST 8009): 64 µg/mL (≈ 27.3 µM); Minimal inhibitory concentration MIC (MDRAB 12035 [3]): 16 µg/mL (≈ 6.83 µM); Peptide MIC, peptide alone (MDRAB 12035 [3]): 16 µg/mL; Minimal inhibitory concentration MIC (A. baumannii [4]): 16 µg/mL (≈ 6.83 µM); Peptide MIC, peptide alone (A. baumannii [4]): 16 µg/mL; Antibacterial activity relative to PapMA-1 (A. baumannii [4]; A. baumannii and antibiotic-resistant strains thereof): 4 times; Minimal inhibitory concentration MIC (S. typhimurium): 32 µg/mL (≈ 13.7 µM)

From patent publication US11214594B2, “Antimicrobial peptide having synergistic antibacterial effect with antibiotics on multidrug resistant bacteria, and use thereof” (priority 2016, dated 2022)
